Measured values reported in ChEMBL document CHEMBL3045519, “Selective Herbicidal Activity of 3, 5-Dichloropyridyloxy-phenoxypropionamidoxyacetic Acid Derivatives between Wheat and Wild Oat” (J Pestic Sci, 1996).
Activity calls are given as the source filed them. The rule behind the calls is not given here.

Key:
Avena fatua [1] = experiment: Post-emergence herbicidal activity against Avena fatua under greenhouse conditions at 2.5 g/a at 1.5-leaf stage measured after 3 weeks by pot test; assay type: functional, organism-based
Triticum aestivum [2] = experiment: Phytotoxicity against Triticum aestivum (wheat) under greenhouse conditions at 0.6 g/a at 1.5-leaf stage measured after 3 weeks by pot test; assay type: organism-based; conditions: in vivo, 504 h
Avena fatua [3] = experiment: Post-emergence herbicidal activity against Avena fatua under greenhouse conditions at 0.6 g/a at 1.5-leaf stage measured after 3 weeks by pot test; assay type: functional, organism-based
Triticum aestivum [4] = experiment: Phytotoxicity against Triticum aestivum (wheat) under greenhouse conditions at 1.3 g/a at 1.5-leaf stage measured after 3 weeks by pot test; assay type: organism-based; conditions: in vivo, 504 h
Avena fatua [5] = experiment: Post-emergence herbicidal activity against Avena fatua under greenhouse conditions at 0.3 g/a at 1.5-leaf stage measured after 3 weeks by pot test; assay type: functional, organism-based
Avena fatua [6] = experiment: Post-emergence herbicidal activity against Avena fatua under greenhouse conditions at 1.3 g/a at 1.5-leaf stage measured after 3 weeks by pot test; assay type: functional, organism-based
Triticum aestivum [7] = experiment: Phytotoxicity against Triticum aestivum (wheat) under greenhouse conditions at 0.3 g/a at 1.5-leaf stage measured after 3 weeks by pot test; assay type: organism-based; conditions: in vivo, 504 h
Triticum aestivum [8] = experiment: Phytotoxicity against Triticum aestivum (wheat) under greenhouse conditions at 2.5 g/a at 1.5-leaf stage measured after 3 weeks by pot test; assay type: organism-based; conditions: in vivo, 504 h

CCOC(=O)C(C)Oc1ccc(Oc2ncc(Cl)cc2Cl)cc1 (centres undefined)
Activity (Avena fatua [1]): Active
Activity (Triticum aestivum [2]): Toxic
Activity (Avena fatua [3]): Active
Activity (Triticum aestivum [4]): Toxic
Activity (Avena fatua [5]): Active
Activity (Avena fatua [6]): Active
Activity (Triticum aestivum [7]): Toxic
Activity (Triticum aestivum [8]): Toxic

CC(Oc1ccc(Oc2ncc(Cl)cc2Cl)cc1)C(=O)NN (centres undefined)
Activity (Avena fatua [1]): inactive
Activity (Triticum aestivum [2]): Non-toxic
Activity (Avena fatua [3]): inactive
Activity (Triticum aestivum [4]): Non-toxic
Activity (Avena fatua [5]): inactive
Activity (Avena fatua [6]): inactive
Activity (Triticum aestivum [7]): Non-toxic
Activity (Triticum aestivum [8]): Non-toxic

COC(=O)CNC(=O)C(C)Oc1ccc(Oc2ncc(Cl)cc2Cl)cc1 (centres undefined)
Activity (Avena fatua [1]): Active
Activity (Triticum aestivum [2]): Non-toxic
Activity (Avena fatua [3]): Active
Activity (Triticum aestivum [4]): Non-toxic
Activity (Avena fatua [5]): Active
Activity (Avena fatua [6]): Active
Activity (Triticum aestivum [7]): Non-toxic
Activity (Triticum aestivum [8]): Non-toxic

CC(Oc1ccc(Oc2ncc(Cl)cc2Cl)cc1)C(=O)NCC(N)=O (centres undefined)
Activity (Avena fatua [1]): Active
Activity (Triticum aestivum [2]): Non-toxic
Activity (Avena fatua [3]): Active
Activity (Triticum aestivum [4]): Non-toxic
Activity (Avena fatua [5]): Active
Activity (Avena fatua [6]): Active
Activity (Triticum aestivum [7]): Non-toxic
Activity (Triticum aestivum [8]): Toxic

CCCCNC(=O)CNC(=O)C(C)Oc1ccc(Oc2ncc(Cl)cc2Cl)cc1 (centres undefined)
Activity (Avena fatua [1]): Active
Activity (Triticum aestivum [2]): Non-toxic
Activity (Avena fatua [3]): Active
Activity (Triticum aestivum [4]): Non-toxic
Activity (Avena fatua [5]): Active
Activity (Avena fatua [6]): Active
Activity (Triticum aestivum [7]): Non-toxic
Activity (Triticum aestivum [8]): Toxic

CCCCOC(=O)CNC(=O)C(C)Oc1ccc(Oc2ncc(Cl)cc2Cl)cc1 (centres undefined)
Activity (Avena fatua [1]): Active
Activity (Triticum aestivum [2]): Non-toxic
Activity (Avena fatua [3]): Active
Activity (Triticum aestivum [4]): Non-toxic
Activity (Avena fatua [5]): Active
Activity (Avena fatua [6]): Active
Activity (Triticum aestivum [7]): Non-toxic
Activity (Triticum aestivum [8]): Non-toxic

CCOC(=O)CNC(=O)C(C)Oc1ccc(Oc2ncc(Cl)cc2Cl)cc1 (centres undefined)
Activity (Avena fatua [1]): Active
Activity (Triticum aestivum [2]): Non-toxic
Activity (Avena fatua [3]): Active
Activity (Triticum aestivum [4]): Non-toxic
Activity (Avena fatua [5]): Active
Activity (Avena fatua [6]): Active
Activity (Triticum aestivum [7]): Non-toxic
Activity (Triticum aestivum [8]): Toxic

CCCOC(=O)CNC(=O)C(C)Oc1ccc(Oc2ncc(Cl)cc2Cl)cc1 (centres undefined)
Activity (Avena fatua [1]): Active
Activity (Triticum aestivum [2]): Non-toxic
Activity (Avena fatua [3]): Active
Activity (Triticum aestivum [4]): Non-toxic
Activity (Avena fatua [5]): Active
Activity (Avena fatua [6]): Active
Activity (Triticum aestivum [7]): Non-toxic
Activity (Triticum aestivum [8]): Non-toxic

CC(Oc1ccc(Oc2ncc(Cl)cc2Cl)cc1)C(=O)N(C)OCC(=O)O (centres undefined)
Activity (Avena fatua [1]): Active
Activity (Triticum aestivum [2]): Non-toxic
Activity (Avena fatua [3]): inactive
Activity (Triticum aestivum [4]): Non-toxic
Activity (Avena fatua [5]): inactive
Activity (Avena fatua [6]): Active
Activity (Triticum aestivum [7]): Non-toxic
Activity (Triticum aestivum [8]): Non-toxic

CC(Oc1ccc(Oc2cnc3cc(Cl)ccc3n2)cc1)C(=O)NOCC(=O)O (centres undefined)
Activity (Avena fatua [1]): Active
Activity (Triticum aestivum [2]): Toxic
Activity (Avena fatua [3]): Active
Activity (Triticum aestivum [4]): Toxic
Activity (Avena fatua [5]): Active
Activity (Avena fatua [6]): Active
Activity (Triticum aestivum [7]): Toxic
Activity (Triticum aestivum [8]): Toxic

CCCNC(=O)CNC(=O)C(C)Oc1ccc(Oc2ncc(Cl)cc2Cl)cc1 (centres undefined)
Activity (Avena fatua [1]): Active
Activity (Triticum aestivum [2]): Non-toxic
Activity (Avena fatua [3]): Active
Activity (Triticum aestivum [4]): Non-toxic
Activity (Avena fatua [5]): inactive
Activity (Avena fatua [6]): Active
Activity (Triticum aestivum [7]): Non-toxic
Activity (Triticum aestivum [8]): Toxic

CNC(=O)CNC(=O)C(C)Oc1ccc(Oc2ncc(Cl)cc2Cl)cc1 (centres undefined)
Activity (Avena fatua [1]): Active
Activity (Triticum aestivum [2]): Non-toxic
Activity (Avena fatua [3]): Active
Activity (Triticum aestivum [4]): Non-toxic
Activity (Avena fatua [5]): Active
Activity (Avena fatua [6]): Active
Activity (Triticum aestivum [7]): Non-toxic
Activity (Triticum aestivum [8]): Non-toxic

CONC(=O)C(C)Oc1ccc(Oc2ncc(Cl)cc2Cl)cc1 (centres undefined)
Activity (Avena fatua [1]): Active
Activity (Triticum aestivum [2]): Toxic
Activity (Avena fatua [3]): Active
Activity (Triticum aestivum [4]): Toxic
Activity (Avena fatua [5]): Active
Activity (Avena fatua [6]): Active
Activity (Triticum aestivum [7]): Non-toxic
Activity (Triticum aestivum [8]): Toxic

CC(Oc1ccc(Oc2ncc(Cl)cc2Cl)cc1)C(=O)NO (centres undefined)
Activity (Avena fatua [1]): Active
Activity (Triticum aestivum [2]): Non-toxic
Activity (Avena fatua [3]): Active
Activity (Triticum aestivum [4]): Non-toxic
Activity (Avena fatua [5]): inactive
Activity (Avena fatua [6]): Active
Activity (Triticum aestivum [7]): Non-toxic
Activity (Triticum aestivum [8]): Non-toxic

CC(Oc1ccc(Oc2ncc(Cl)cc2Cl)cc1)C(N)=O (centres undefined)
Activity (Avena fatua [1]): Active
Activity (Triticum aestivum [2]): Non-toxic
Activity (Avena fatua [3]): Active
Activity (Triticum aestivum [4]): Non-toxic
Activity (Avena fatua [5]): inactive
Activity (Avena fatua [6]): Active
Activity (Triticum aestivum [7]): Non-toxic
Activity (Triticum aestivum [8]): Non-toxic

CC(Oc1ccc(Oc2ncc(Cl)cc2Cl)cc1)C(=O)O (centres undefined) [PYRIPHENOP]
Activity (Avena fatua [1]): Active
Activity (Triticum aestivum [2]): Toxic
Activity (Avena fatua [3]): Active
Activity (Triticum aestivum [4]): Toxic
Activity (Avena fatua [5]): Active
Activity (Avena fatua [6]): Active
Activity (Triticum aestivum [7]): Non-toxic
Activity (Triticum aestivum [8]): Toxic

CC(Oc1ccc(Oc2ccc(C(F)(F)F)cn2)cc1)C(=O)NOCC(=O)O (centres undefined)
Activity (Avena fatua [1]): Active
Activity (Triticum aestivum [2]): Toxic
Activity (Avena fatua [3]): Active
Activity (Triticum aestivum [4]): Toxic
Activity (Avena fatua [5]): inactive
Activity (Avena fatua [6]): Active
Activity (Triticum aestivum [7]): Toxic
Activity (Triticum aestivum [8]): Toxic

O=C(O)CONC(=O)COc1ccc(Oc2ncc(Cl)cc2Cl)cc1
Activity (Avena fatua [1]): inactive
Activity (Triticum aestivum [2]): Non-toxic
Activity (Avena fatua [3]): inactive
Activity (Triticum aestivum [4]): Non-toxic
Activity (Avena fatua [5]): inactive
Activity (Avena fatua [6]): inactive
Activity (Triticum aestivum [7]): Non-toxic
Activity (Triticum aestivum [8]): Non-toxic

COC(=O)C(C)Oc1ccc(Oc2ncc(Cl)cc2Cl)cc1 (centres undefined)
Activity (Avena fatua [1]): Active
Activity (Triticum aestivum [2]): Toxic
Activity (Avena fatua [3]): Active
Activity (Triticum aestivum [4]): Toxic
Activity (Avena fatua [5]): Active
Activity (Avena fatua [6]): Active
Activity (Triticum aestivum [7]): Toxic
Activity (Triticum aestivum [8]): Toxic

CC(Oc1ccc(Oc2ncc(C(F)(F)F)cc2Cl)cc1)C(=O)NOCC(=O)O (centres undefined)
Activity (Avena fatua [1]): Active
Activity (Triticum aestivum [2]): Toxic
Activity (Avena fatua [3]): Active
Activity (Triticum aestivum [4]): Toxic
Activity (Avena fatua [5]): Active
Activity (Avena fatua [6]): Active
Activity (Triticum aestivum [7]): Toxic
Activity (Triticum aestivum [8]): Toxic

CC(Oc1ccc(Oc2ccc(C(F)(F)F)cn2)cc1)C(=O)O (centres undefined) [FLUAZIFOP]
Activity (Avena fatua [1]): Active
Activity (Triticum aestivum [2]): Toxic
Activity (Avena fatua [3]): Active
Activity (Triticum aestivum [4]): Toxic
Activity (Avena fatua [5]): Active
Activity (Avena fatua [6]): Active
Activity (Triticum aestivum [7]): Toxic
Activity (Triticum aestivum [8]): Toxic

CNC(=O)C(C)Oc1ccc(Oc2ncc(Cl)cc2Cl)cc1 (centres undefined)
Activity (Avena fatua [1]): inactive
Activity (Triticum aestivum [2]): Non-toxic
Activity (Avena fatua [3]): inactive
Activity (Triticum aestivum [4]): Non-toxic
Activity (Avena fatua [5]): inactive
Activity (Avena fatua [6]): inactive
Activity (Triticum aestivum [7]): Non-toxic
Activity (Triticum aestivum [8]): Non-toxic

CC(Oc1ccc(Oc2ncc(Cl)cc2Cl)cc1)C(=O)NOCC(=O)O (centres undefined)
Activity (Avena fatua [1]): Active
Activity (Triticum aestivum [2]): Non-toxic
Activity (Avena fatua [3]): Active
Activity (Triticum aestivum [4]): Non-toxic
Activity (Avena fatua [5]): Active
Activity (Avena fatua [6]): inactive
Activity (Triticum aestivum [7]): Non-toxic
Activity (Triticum aestivum [8]): Non-toxic
